Reference: PubChem BioAssay AID248 (DTP/NCI, 2004)
Values joined by “and” are separate entries in the source; they are usually repeats but may differ in a detail not shown here. Equal entries are not always repeated. Inconclusive results and toxic doses are left out. Cut-off read from the data, not from the text of the source: active = T/C of 150% or more; inactive = T/C below 125%.

Tested on: L1210 leukemia ip in BDF1 mice, survival T/C
Test: NCI In Vivo Anticancer Drug Screen. Data for tumor model L1210 Leukemia (intraperitoneal) in B6D2F1 (BDF1) mice
Conditions: endpoint: mean survival time, higher = longer survival
Procedure, shortened: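 Transplantable tumor model; survival measured in treated vs vehicle control mice. Value = treated/control.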

[1] = dose: 100.0 mg/kg/injection, schedule: Q04DX002 (ip), vehicle: saline with Tween-80
[2] = dose: 200.0 mg/kg/injection, schedule: Q04DX002 (ip), vehicle: saline with Tween-80
[3] = dose: 400.0 mg/kg/injection, schedule: Q04DX002 (ip), vehicle: saline with Tween-80
[4] = dose: 100.0 mg/kg/injection, schedule: Q04DX003 (ip), vehicle: saline
[5] = dose: 50.0 mg/kg/injection, schedule: Q04DX003 (ip), vehicle: Klucel (hydroxypropylcellulose) (HPC)
[6] = dose: 100.0 mg/kg/injection, schedule: Q01DX009 (ip), vehicle: Klucel (hydroxypropylcellulose) (HPC)
[7] = dose: 100.0 mg/kg/injection, schedule: Q04DX003 (ip), vehicle: Klucel (hydroxypropylcellulose) (HPC)
[8] = dose: 200.0 mg/kg/injection, schedule: Q01DX009 (ip), vehicle: Klucel (hydroxypropylcellulose) (HPC)
[9] = dose: 200.0 mg/kg/injection, schedule: Q04DX003 (ip), vehicle: Klucel (hydroxypropylcellulose) (HPC)
[10] = dose: 400.0 mg/kg/injection, schedule: Q01DX009 (ip), vehicle: Klucel (hydroxypropylcellulose) (HPC)
[11] = dose: 400.0 mg/kg/injection, schedule: Q04DX003 (ip), vehicle: Klucel (hydroxypropylcellulose) (HPC)
[12] = dose: 75.0 mg/kg/injection, schedule: Q01DX001 (ip), vehicle: saline
[13] = dose: 150.0 mg/kg/injection, schedule: Q01DX001 (ip), vehicle: saline
[14] = dose: 50.0 mg/kg/injection, schedule: Q01DX009 (ip), vehicle: saline
[15] = dose: 100.0 mg/kg/injection, schedule: Q01DX009 (ip), vehicle: saline
[16] = dose: 200.0 mg/kg/injection, schedule: Q04DX003 (ip), vehicle: saline
[17] = dose: 25.0 mg/kg/injection, schedule: Q01DX009 (ip), vehicle: saline
[18] = dose: 100.0 mg/kg/injection, schedule: Q01DX009 (ip), vehicle: saline with Tween-80
[19] = dose: 200.0 mg/kg/injection, schedule: Q01DX009 (ip), vehicle: saline with Tween-80
[20] = dose: 100.0 mg/kg/injection, schedule: Q04DX003 (ip), vehicle: saline with Tween-80
[21] = dose: 200.0 mg/kg/injection, schedule: Q04DX003 (ip), vehicle: saline with Tween-80
[22] = dose: 400.0 mg/kg/injection, schedule: Q04DX003 (ip), vehicle: saline with Tween-80

Measured: T/C

CN(C)/N=C\c1cccc2ccccc12
inactive: [1] 96 % of control | [2] 92 % of control | [3] 92 % of control

CN(C)C(=O)c1cc[n+](Cc2ccc(Cl)c(Cl)c2)cc1
inactive: [4] 105 % of control

NC(N)=N/N=C/c1c(O)ccc2ccccc12
inactive: dose: 15.0 mg/kg/injection, schedule: Q01DX Z (ip), vehicle: saline 99 % of control | dose: 15.6 mg/kg/injection, schedule: Q01DX010 (oral), vehicle: saline 117 % of control | dose: 31.0 mg/kg/injection, schedule: Q01DX Z (ip), vehicle: saline 94 % of control | dose: 31.3 mg/kg/injection, schedule: Q01DX010 (oral), vehicle: saline 118 % of control | dose: 63.0 mg/kg/injection, schedule: Q01DX Z (ip), vehicle: saline 86 % of control

O=C1CCCC(c2ccccc2)O1 (centres undefined)
inactive: dose: 100.0 mg/kg/injection, schedule: Q04DX002 (ip), vehicle: Klucel (hydroxypropylcellulose) (HPC) 108 % of control | dose: 200.0 mg/kg/injection, schedule: Q04DX002 (ip), vehicle: Klucel (hydroxypropylcellulose) (HPC) 101 % of control | dose: 400.0 mg/kg/injection, schedule: Q04DX002 (ip), vehicle: Klucel (hydroxypropylcellulose) (HPC) 101 % of control

CC(C)NC1(C(N)=O)CCN(Cc2ccccc2)CC1
inactive: dose: 50.0 mg/kg/injection, schedule: Q01DX009 (ip), vehicle: Klucel (hydroxypropylcellulose) (HPC) 95 % of control | [5] 98 % of control | [6] 100 % of control | [7] 93 % of control | [8] 104 % of control | [9] 95 % of control

c1ccc2c(c1)CCc1cc3c(nc1-2)-c1ccccc1CC3
inactive: [6] 97 % of control | [7] 100 % of control | [8] 98 % of control | [9] 100 % of control | [10] 95 % of control | [11] 94 % of control

CS(=O)(=O)N(c1nc2ccccc2s1)S(C)(=O)=O
inactive: dose: 100.0 mg/kg/injection, schedule: Q04DX003 (ip), vehicle: carboxymethylcellulose (CMC) 95 % of control | dose: 200.0 mg/kg/injection, schedule: Q04DX003 (ip), vehicle: carboxymethylcellulose (CMC) 93 % of control | dose: 400.0 mg/kg/injection, schedule: Q04DX003 (ip), vehicle: carboxymethylcellulose (CMC) 95 % of control

c1ccc(COCc2ccc(C3N(c4ccccc4)CCN3c3ccccc3)o2)cc1
inactive: [1] 96 % of control | [2] 96 % of control | [3] 104 % of control

COC(=O)CC(c1ccc(OC)cc1)C(CC(=O)OC)c1ccc(OC)cc1 (centres undefined)
inactive: [7] 98 % of control | [9] 93 % of control | [11] 104 % of control

COCC1C2CC(=O)OC2C(I)C1OC(=O)c1ccc(-c2ccccc2)cc1 (centres undefined)
inactive: [7] 100 % of control | [9] 104 % of control | [11] 91 % of control

O=[N+]([O-])c1cc(S(=O)(=O)F)ccc1S
inactive: [7] 102 % of control | [9] 100 % of control

O=C(O)CCC(=O)Nc1ccc2c(c1)B(O)OC2
inactive: [5] 101 % of control | [7] 96 % of control and 90 % of control | [9] 96 % of control | [11] 88 % of control

CCOC(=O)C1C2OC(=O)C(C(=O)C2P2(=O)OCCN2CCCl)C1c1ccc(OC(C)=O)cc1 (centres undefined)
inactive: [7] 108 % of control | [9] 95 % of control | [11] 108 % of control

O=C(Nc1ccc(Cl)c(Cl)c1)OCCCl
inactive: [12] 89 % of control | [13] 109 % of control

NC(=O)C(O)C(O)C(O)C(O)C(N)=O (centres undefined)
inactive: [14] 100 % of control | [15] 98 % of control | [4] 92 % of control | dose: 200.0 mg/kg/injection, schedule: Q01DX009 (ip), vehicle: saline 93 % of control | [16] 93 % of control

OCCCCCc1ccccc1
inactive: dose: 100.0 mg/kg/injection, schedule: Q01DX009 (ip), vehicle: other 105 % of control | [4] 92 % of control | dose: 200.0 mg/kg/injection, schedule: Q01DX009 (ip), vehicle: other 102 % of control | [16] 101 % of control | dose: 400.0 mg/kg/injection, schedule: Q01DX009 (ip), vehicle: other 102 % of control | dose: 400.0 mg/kg/injection, schedule: Q04DX003 (ip), vehicle: saline 90 % of control

NCCc1cnc2ccccc2n1
inactive: [17] 95 % of control | [14] 97 % of control | [15] 96 % of control | [4] 98 % of control

Cc1ccccc1NC(N)=O
inactive: [7] 110 % of control | [9] 105 % of control | [11] 103 % of control

CC(=O)c1cc2cc(Cl)cc(Cl)c2oc1=O
inactive: [18] 94 % of control | [1] 95 % of control | [19] 91 % of control | [2] 100 % of control | [3] 92 % of control

CC(O)CC(C)(C)c1ccccc1 (centres undefined)
inactive: dose: 50.0 mg/kg/injection, schedule: Q01DX009 (ip), vehicle: saline with Tween-80 93 % of control | [18] 93 % of control | [19] 89 % of control

OC(c1ccccc1)C(Nc1ccccc1)c1ccccc1 (centres undefined)
inactive: [12] 102 % of control | [20] 96 % of control | [13] 94 % of control | [21] 98 % of control | dose: 300.0 mg/kg/injection, schedule: Q01DX001 (ip), vehicle: saline 97 % of control | [22] 93 % of control

CC(=O)Oc1cc2c3c(c1)-c1c(ccc(OC(C)=O)c1OC(C)=O)CC3NCC2 (centres undefined)
inactive: dose: 3.13 mg/kg/injection, schedule: Q04DX003 (ip), vehicle: DMSO 93 % of control | dose: 6.25 mg/kg/injection, schedule: Q04DX003 (ip), vehicle: DMSO 93 % of control | dose: 12.5 mg/kg/injection, schedule: Q04DX003 (ip), vehicle: DMSO 93 % of control | dose: 25.0 mg/kg/injection, schedule: Q04DX003 (ip), vehicle: DMSO 98 % of control | dose: 50.0 mg/kg/injection, schedule: Q04DX003 (ip), vehicle: DMSO 87 % of control

COc1cc2c(cc1OC(C)=O)CCCCC2=O
inactive: dose: 100.0 mg/kg/injection, schedule: Q01DX001 (ip), vehicle: saline 101 % of control | dose: 200.0 mg/kg/injection, schedule: Q01DX001 (ip), vehicle: saline 103 % of control | dose: 400.0 mg/kg/injection, schedule: Q01DX001 (ip), vehicle: saline 101 % of control

CN(CCC#N)c1ccc(C=C(C#N)C#N)cc1
inactive: [6] 92 % of control | [8] 95 % of control | [10] 97 % of control

NC(=O)c1cn(C2OC(CO)C(O)C2O)c2nc(Cl)nc(N)c12 (centres undefined)
inactive: dose: 3.12 mg/kg/injection, schedule: Q01DX009 (ip), vehicle: saline 96 % of control | dose: 6.25 mg/kg/injection, schedule: Q01DX009 (ip), vehicle: saline 106 % of control | dose: 12.5 mg/kg/injection, schedule: Q01DX009 (ip), vehicle: saline 101 % of control | [17] 106 % of control | [16] 115 % of control

O=C(Nc1ccc(CCO)cc1)c1cccc(F)c1
inactive: [6] 96 % of control | [8] 107 % of control | [10] 91 % of control

CCOC(=O)C(=O)c1ccccc1
inactive: [18] 100 % of control | [20] 96 % of control | [19] 103 % of control | [21] 103 % of control | dose: 400.0 mg/kg/injection, schedule: Q01DX009 (ip), vehicle: saline with Tween-80 97 % of control | [22] 103 % of control
